According to ChEMBL document CHEMBL5230094, “Structure-activity relationships of Wee1 inhibitors: A review” (Eur J Med Chem, 2020):

Key:
[1] = target: Proto-oncogene tyrosine-protein kinase Src (Homo sapiens, UniProt P12931); test: Inhibition of c-Src (unknown origin)
[2] = target: T1, Wee1-like protein kinase (Homo sapiens, UniProt P30291); test: Inhibition of recombinant Wee1 (unknown origin) incubated for 1 hr by TR-FRET assay
[3] = target: T2, Serine/threonine-protein kinase Chk1 (Homo sapiens, UniProt O14757); test: Inhibition of CHK1 (unknown origin)
T2 sequence (O14757 whole entry): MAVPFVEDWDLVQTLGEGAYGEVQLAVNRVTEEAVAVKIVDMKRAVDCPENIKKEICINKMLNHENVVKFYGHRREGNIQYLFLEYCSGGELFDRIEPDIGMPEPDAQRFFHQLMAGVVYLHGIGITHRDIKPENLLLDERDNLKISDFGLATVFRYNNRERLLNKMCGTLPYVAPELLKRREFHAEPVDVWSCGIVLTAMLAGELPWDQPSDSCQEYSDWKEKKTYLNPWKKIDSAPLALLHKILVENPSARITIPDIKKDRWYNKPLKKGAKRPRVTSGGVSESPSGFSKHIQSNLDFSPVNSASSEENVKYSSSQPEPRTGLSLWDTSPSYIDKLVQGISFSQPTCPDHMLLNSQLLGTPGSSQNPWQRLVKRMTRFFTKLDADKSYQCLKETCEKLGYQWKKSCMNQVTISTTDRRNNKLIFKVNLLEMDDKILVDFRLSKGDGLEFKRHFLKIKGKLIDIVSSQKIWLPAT

[4] = test system: MDA-MB-231; test: Antiproliferative activity against human MDA-MB-231 cells
[5] = target: T1, Wee1-like protein kinase; test: Inhibition of human full length N-terminal GST tagged Wee1 expressed in E coli
[6] = test system: A549; test: Antiproliferative activity against human A549 cells by MTS based Cell Titer 96 viability assay; assay type: functional
[7] = target: T1, Wee1-like protein kinase; test: Binding affinity to Wee1 (unknown origin) assessed as dissociation constant
[8] = target: T1, Wee1-like protein kinase; test: Inhibition of recombinant Wee1 (unknown origin) by TR-FRET assay

Proto-oncogene tyrosine-protein kinase Src, sequence (P12931 2-536 limits assumed): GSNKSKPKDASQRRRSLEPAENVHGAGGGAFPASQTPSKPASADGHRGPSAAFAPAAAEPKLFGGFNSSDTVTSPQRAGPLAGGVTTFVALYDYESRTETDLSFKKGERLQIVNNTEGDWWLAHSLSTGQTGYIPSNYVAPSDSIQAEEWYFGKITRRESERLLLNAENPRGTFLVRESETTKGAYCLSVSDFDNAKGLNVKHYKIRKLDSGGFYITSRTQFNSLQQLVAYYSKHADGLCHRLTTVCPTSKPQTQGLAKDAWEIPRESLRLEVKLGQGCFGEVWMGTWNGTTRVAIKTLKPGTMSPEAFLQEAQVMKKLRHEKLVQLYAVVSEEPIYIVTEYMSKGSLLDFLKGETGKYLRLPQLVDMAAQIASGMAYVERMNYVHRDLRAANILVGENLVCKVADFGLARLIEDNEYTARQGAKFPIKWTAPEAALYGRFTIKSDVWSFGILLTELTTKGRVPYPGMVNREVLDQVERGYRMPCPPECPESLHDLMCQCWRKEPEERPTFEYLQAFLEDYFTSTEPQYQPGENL
T1 sequence (P30291 whole entry): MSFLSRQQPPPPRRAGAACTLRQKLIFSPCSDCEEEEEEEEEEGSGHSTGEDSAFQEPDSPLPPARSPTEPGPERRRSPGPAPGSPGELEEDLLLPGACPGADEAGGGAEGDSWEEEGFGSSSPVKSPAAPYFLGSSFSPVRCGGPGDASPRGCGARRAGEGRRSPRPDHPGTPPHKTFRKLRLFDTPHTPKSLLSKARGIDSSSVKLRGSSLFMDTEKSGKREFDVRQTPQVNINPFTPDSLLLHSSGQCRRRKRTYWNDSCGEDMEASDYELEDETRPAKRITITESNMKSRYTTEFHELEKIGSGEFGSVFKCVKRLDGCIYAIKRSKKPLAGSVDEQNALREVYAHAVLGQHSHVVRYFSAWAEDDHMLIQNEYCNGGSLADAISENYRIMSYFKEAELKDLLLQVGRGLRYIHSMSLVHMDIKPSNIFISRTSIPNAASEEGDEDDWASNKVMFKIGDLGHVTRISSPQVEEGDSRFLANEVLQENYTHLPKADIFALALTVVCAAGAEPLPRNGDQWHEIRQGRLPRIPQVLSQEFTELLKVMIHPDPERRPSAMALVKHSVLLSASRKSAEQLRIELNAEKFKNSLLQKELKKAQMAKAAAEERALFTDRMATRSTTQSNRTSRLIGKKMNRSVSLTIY

Compound | IC50 [1] | further results
C=CCn1c(=O)c2cnc(Nc3ccc(N4CCN(C(=O)OC)CC4)cc3)nc2n1-c1cccc(C(C)(C)O)n1 |  | IC50 [2]: 27.8 nM
CCN(CC)CCOc1ccc(Nc2ncc3cc(-c4c(Cl)cccc4Cl)c(=O)n(C)c3n2)cc1 [PD-0166285] |  | IC50 [3]: 72 nM
COc1cc(Nc2c(C#N)cnc3cc(OCCCN4CCN(C)CC4)c(OC)cc23)c(Cl)cc1Cl [BOSUTINIB] |  | IC50 [4]: 1800 nM
CCN(CC)CCOc1ccc(Nc2ncc3c(C)c(-c4c(C)cccc4C)c(=O)n(C)c3n2)cc1 | 360 nM | 
CCOC(=O)N1CCc2c(sc3nc(SCC(=O)c4ccccc4)n(N)c(=O)c23)C1 |  | IC50 [5]: 22300 nM; IC50 [6]: 17800 nM
CCN(CC)CCOc1ccc(Nc2ncc3c(C)c(-c4ccccc4Cl)c(=O)n(C)c3n2)cc1 | > 50000 nM | 
CC(=O)NCC(=O)N1[C@@H]2CC[C@H]1c1cc(Nc3ncc(C(F)(F)F)c(NC4CCC4)n3)ccc12 |  | Kd [7]: 78.7 nM
C=CCn1c(=O)c2cnc(Nc3ccc(CCN(C)C)cc3)nc2n1-c1cccc(C(C)(C)O)n1 |  | IC50 [8]: 1.7 nM
Cc1cccc(C)c1-c1cc2cnc(Nc3ccccc3)nc2n(C)c1=O | 14 nM | 

Second part, led by results:

IC50 [1] | Compound | further results
23 nM | CCN(CC)CCOc1ccc(Nc2ncc3cc(-c4c(C)cccc4C)c(=O)n(C)c3n2)cc1 | 
99 nM | Cn1c(=O)c(-c2c(Cl)ccc(O)c2Cl)cc2cnc(Nc3ccc(OCCCC(=O)O)cc3)nc21 | 
4 nM | Cn1c(=O)c(-c2c(Cl)cccc2Cl)cc2cnc(Nc3ccc(OCCCC(=O)O)cc3)nc21 | 
13 nM | Cn1c(=O)c(-c2c(Cl)cccc2Cl)cc2cnc(Nc3ccc(CC(N)=O)cc3)nc21 | 
